This note sets out measurements from paper PMC5743427, “Inhibition of PIP4Kγ ameliorates the pathological effects of mutant huntingtin protein” (eLife, 2017).

pIC50, pKd: −log10 of the molar value.

One assay deals with T1, PIP4K2C (Homo sapiens, UniProt Q8TBX8).
T1 sequence (Q8TBX8 2-421): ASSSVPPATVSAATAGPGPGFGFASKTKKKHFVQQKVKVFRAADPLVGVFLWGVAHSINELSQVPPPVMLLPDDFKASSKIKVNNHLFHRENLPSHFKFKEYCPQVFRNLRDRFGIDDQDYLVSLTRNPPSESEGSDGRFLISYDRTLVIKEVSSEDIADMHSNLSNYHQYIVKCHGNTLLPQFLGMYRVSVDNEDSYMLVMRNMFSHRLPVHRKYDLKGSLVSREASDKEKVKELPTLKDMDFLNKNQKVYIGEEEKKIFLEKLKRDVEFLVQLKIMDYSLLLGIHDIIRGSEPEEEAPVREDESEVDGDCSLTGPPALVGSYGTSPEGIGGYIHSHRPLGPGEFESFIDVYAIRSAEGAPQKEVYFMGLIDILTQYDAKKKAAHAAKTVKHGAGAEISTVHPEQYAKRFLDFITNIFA
Put plainly: KINOMEscan competition binding, single dose […]. Particulars: 10 µM.

In the next assay the target is T2, PIP4Kalpha (Homo sapiens, UniProt P48426).
T2 construct: gene PIP4K2A
T2 sequence (P48426 2-406): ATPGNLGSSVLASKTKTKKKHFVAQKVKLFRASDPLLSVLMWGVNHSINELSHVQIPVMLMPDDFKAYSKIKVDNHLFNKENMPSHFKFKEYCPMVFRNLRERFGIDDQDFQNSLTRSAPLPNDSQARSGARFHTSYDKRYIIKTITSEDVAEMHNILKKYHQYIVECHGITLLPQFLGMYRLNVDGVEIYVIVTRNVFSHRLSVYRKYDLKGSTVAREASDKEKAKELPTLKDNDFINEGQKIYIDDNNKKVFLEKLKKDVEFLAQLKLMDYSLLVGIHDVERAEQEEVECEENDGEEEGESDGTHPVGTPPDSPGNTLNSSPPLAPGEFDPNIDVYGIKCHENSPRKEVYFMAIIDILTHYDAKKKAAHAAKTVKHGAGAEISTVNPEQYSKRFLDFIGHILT
Put plainly: […] lipid kinase assay (PI5P phosphorylation) with purified recombinant enzyme; weak inhibition. It is filed as biochemical.

For a further assay, the target named is T3, PIP4Kγ (Homo sapiens, UniProt Q8TBX8).
T3 construct: gene PIP4K2C; KINOMEscan construct for Kd; full length isolated PIP4Kγ for the enzyme assay
T3 sequence (Q8TBX8 2-421): T1 sequence (Q8TBX8 2-421)
Description: DiscoverX KINOMEscan competition binding Kd; also […] lipid kinase assay with purified full-length enzyme (IC50 […]).

For the compound `Cn1nnnc1Sc1ncnc2scc(-c3ccccc3)c12` [ML168], the ML168 on PIP4K2C came out at 23. As for `Cn1nnnc1Sc1ncnc2scc(-c3cccc(S(C)(=O)=O)c3)c12` [NCT-504, 4-((1-methyl-1H-tetrazol-5-yl)thio)−5-(3-(methylsulfonyl)phenyl)thieno[2,3-d]pyrimidine], the pIC50 at PIP4Kalpha was 4.00 to 4.30. In addition, the negative-log Kd (pKd) on PIP4Kγ is 6.45.

As a reminder, the pIC50 is the IC50 on a negative log10 scale, so that one unit is a factor of ten. The pKd is the negative decadic logarithm of the Kd, by convention in mol/L.
